Results on ten compounds are retold here after US20250009790A1, “METHODS FOR INDUCING VASODILATION” (THE FLOREY INSTITUTE OF NEUROSCIENCE AND MENTAL HEALTH, priority 2021, published 2025).

“Also recorded” adds a separate entry of the source.

In data set [1] the target is T1, CGRP receptors (Rattus norvegicus, UniProt Q63118+Q9JJ74).
T1 construct: from tissue; host or cells: live anaesthetized rat, hind-paw skin vasculature (in vivo)
As to the kind of experiment: Zinc bis(histidinate)-induced cutaneous vasodilation after CGRP receptor antagonist pre-treatment (LDF). It is filed as in vivo. The following applies: rat hind paw; BIBN4096 3 mg/kg i.v. pre-treatment before Zn-bis-His 3, 10 and 30 mg/kg i.v. As for the experimental part:
(§1) Rats were anaesthetized with urethane (2 g/kg i.p.) after light anaesthesia with inhalation of 5% isoflurane. A laser Doppler probe (OxyFlo probe MSP300XP; ADI Blood Flowmeter) was placed on one hind paw (hair removed with depilatory cream). The animal was allowed to stabilize for 30 min to establish baseline parameters. A single i.v. dose of zinc bis(histidinate) was then administered at 3 mg/kg. The haemodynamic and cutaneous blood flow measurements by laser Doppler flow (LDF) were recorded continuously for 15 min. Then, the effects of 10 mg/kg and 30 mg/kg doses of zinc bis(histidinate) were tested.
In order to better understand the effect of zinc bis(histidinate) on cutaneous blood flow, vasodilation mediated by sensory nerves was blocked by pre-treatment of the rat with a CGRP (calcitonin gene-related peptide) receptor antagonist. A dose of 3 mg/kg BIBN4096 (olcegepant, a known CGRP receptor antagonist was administered intravenously by slow infusion over 10 minutes prior to subsequent administration of zinc bis(histidinate) and measurement of cutaneous blood flow by LDF as described in Example 2.

In data set [2] the test system is rat hind paw. As to the kind of experiment: Cutaneous blood flow by laser Doppler flow in anaesthetized rat hind paw. It is filed as in vivo. The following applies: Zn-bis-His 3, 10 and 30 mg/kg i.v., L-His 67 mg/kg i.v. As for the experimental part: For in vivo measurements of cutaneous blood flow, an average of 3 s consecutive values calculated every 5 s were computed by LabChart software and the data were transformed as percentage of baseline (an average of 1.5 min recording before each dose). The area under the curve (AUC) for change from baseline values was calculated in Prism 8 software. MAP, hindquarter flow and conductance were taken immediately before and every 5 min after a single dose of treatment.
as §1

The test system of data set [3] is sheep during cardiopulmonary bypass. Particulars: cited from earlier work.
Data set [4] relates to rat mesenteric arteries. As to the kind of experiment: Relaxation of isolated rat mesenteric arteries contracted with U46619 (myograph). Particulars: arteries contracted with thromboxane mimetic U46619. It is filed as cell-based. From the text:
Functional in vitro protocols in isolated arteries. Human internal mammary artery and saphenous vein or a range of vessels from rats and mice (left main or anterior descending coronary arteries [250-400 μm internal diameter, i.d.], second order pulmonary interlobar arteries [300-600 μm i.d.], second or third order mesenteric arteries [200-350 μm i.d.], interlobar renal arteries [250-350 μm i.d.], saphenous arteries or veins [300-600 μm i.d.]), or the thoracic aorta were dissected and placed in ice-cold PSS-A with the following composition (mmol/L, mM): NaCl 119; KCl 4.69; MgSO4·7H2O 1.17; KH2PO4 1.18; glucose 5.5; NaHCO3 25; CaCl2·6H2O 2.5 saturated with carbogen (O2 95%; CO2 5%) at pH 7.4. In addition, rat middle cerebral (250-400 μm i.d.) and basilar (250-450 μm i.d.) arteries were used and for these vessels the PSS-A contained 1.5 mM CaCl2 to minimize the occurrence of spontaneous contractions.
After isolation of vessels, ˜2 mm length segments of arteries were mounted in myograph chambers (Model 610M and 620M; Danish Myo Technology, Denmark) containing PSS-A at 37° C. for isometric force measurement as described previously. Contractile and relaxation responses using rat and mice isolated vessels were recorded with LabChart 7 and a PowerLab 4/30 A/D converter (AD Instruments Pty Ltd, Australia) while those including human isolated vessels were recorded with LabChart 8 (AD Instruments) and Myodaq and Myodata 2.01 (Maastricht University, Maastricht, Netherlands). To normalize the basal conditions, the vessels were passively stretched according to a normalization protocol and adjusted to a diameter setting of 90% of that determined for an equivalent transmural pressure of 100 mmHg (30 mmHg for veins). After allowing the tissues to equilibrate for 30 min, the arteries were exposed to a potassium depolarizing solution (124 mM K^+ replacing Na^+ in PSS; termed KPSS) and noradrenaline (10 μM) for 2 min (chemicals, their source and preparation are provided in the online supplement). A second exposure to KPSS solution (only) was used to provide a reference contraction.
Five structurally dissimilar zinc delivery agents (zinc pyrithione, zinc disulfiram, clioquinol, Zn(DTSM) and zinc bis(histidinate)) were administered to rat mesenteric arteries according to the protocols above and the extent to which the arteries contracted were recorded. Acetylcholine and clioquinol were also administered and contractions recorded.

A short description of data set [5]: Mean arterial pressure in anaesthetized rat (carotid artery catheter). It is filed as in vivo. The following applies: bolus i.v. 3, 10 and 30 mg/kg, measured for 10 minutes. As for the experimental part: In vivo blood pressure and flow measurement. Rats and mice were anaesthetized by inhalation of 5% isoflurane (in O2) followed by i.p. injection of pentobarbitone in rats (60 mg/kg; TROY Laboratories, NSW, Australia, maintained by top up doses of 10-20 mg/kg i.v.) or i.p. injection of urethane (2.5 g/kg; Sigma, maintained by top up doses of 0.05-0.1 g/kg i.v.). Animals were placed on a homeostatic blanket system to maintain body temperature at 37±1° C. Lignocaine (1% s.c.) was injected for placement of a tracheotomy tube (for mechanical ventilation), carotid artery and jugular vein catheters.
All drug treatments were administered via the jugular vein catheter. Pulsatile blood pressure, mean arterial pressure (MAP) and heart rate (HR; beats/min) were measured via the carotid artery catheter filled with heparinized (10 U/ml; Pfizer, NY, USA) saline 0.9% and connected to a pressure transducer (Argon Medical Devices, Athens, Greece) and the output was recorded with LabChart 7 and a Powerlab 8SP (AD Instruments). […]
An increase in cutaneous blood flow associated with vasorelaxation typically results in a decrease in arterial pressure. Mean arterial pressure in a rat after administration of zinc bis(histidine) (3 mg/kg, 10 mg/kg or 30 mg/kg) or L-histidine (67 mg/kg) was measured by a pressure transducer attached to a catheter inserted in carotid artery as described in Example 2.

The subject of data set [6] is ovine model of cardiopulmonary bypass. As to the kind of experiment: Ovine cardiopulmonary bypass with intra-operative zinc bis(histidinate) infusion. It is filed as in vivo. The following applies: sheep on CPB (2 h); 3, 10 and 30 mg/kg infusion i.v. every 20 min. From the text: Two merino ewes (35-50 kg bodyweight) were housed in individual metabolic cages with access to 5 litres of water and 800 g of oaten chaff daily. The sheep underwent a preparatory surgical procedure under isoflurane anaesthesia for the implantation of a transit-time flow probe around the renal artery for measurement of renal blood flow. Fibre-optic probes were inserted into the cerebral cortex, renal cortex and renal medulla for measurement of tissue perfusion, pO2 and temperature (see Calzavacca et al., 2015, Am J Physiol Regul Integr Comp Physiol 308, R832-839). Catheters were inserted into the renal and jugular veins, carotid artery and bladder. The experiments were undertaken five days later. Intra-operative analgesics and antibiotics were administered as described previously (Lankadeva et al., 2019, Kidney Int 95 1338-1346; Evans et al., 2020, Am J Physiol Regul Integr Comp Physiol 318, R206-R213; Lankadeva et al., 2021, Acta Physiologica doi.org/10.1111/apha.13596, e13596). Mean arterial pressure, renal blood flow, cerebral cortical, renal cortical and renal medullary tissue perfusion, and temperature were continuously recorded across a series of experimental periods. Arterial, mixed venous and renal venous blood samples were collected every 30 min for blood oximetry and biochemistry (ABL systems 625, Copenhagen, Denmark).
During the first 30 minutes, sheep were awake and unrestrained in their home metabolic cage. Anaesthesia was induced with sodium thiopental (15 mg/kg) and after endotracheal intubation, maintained on isoflurane (2.0%-2.5%) via an artificial ventilator prior to cardiopulmonary bypass or via a membrane oxygenator during cardiopulmonary bypass (FiO2: 60%). This FiO2 was chosen because it is standard during cardiac surgery at the inventors affiliated clinical centre. From the onset of anaesthesia, sheep received a maintenance infusion of compound sodium lactate (2 mL/kg/h; Baxter, NSW, Australia) for the entire duration of the experiment. Once stable anaesthesia was attained, a second experimental period (30 minutes) commenced. Cardiopulmonary bypass was then achieved at a target pump flow of 80 mL/kg/min, a target MAP of 65 mmHg, and a target body temperature of 34.5° C. The prefusion circuit was primed with 300-500 mL of blood from a donor animal, 1 g cefazolin (AFT Pharmaceuticals, NSW, Australia), 50 mL mannitol (20% wt/vol Osmitrol, Baxter, NSW, Australia) and 10 000 IU heparin, made up to 1.3 L with compound sodium lactate. Metaraminol (Metaraminol Montrose, Montrose Life Sciences, NSW, Australia) was administered in boluses of ˜0.25 mg (using a 0.5 mg/mL solution) only in cases where increasing pump flow was not sufficient to attain the target mean arterial pressure during cardiopulmonary bypass. Once stable cardiopulmonary bypass was attained, the sheep was maintained for ˜2 hours before starting a zinc bis(histidinate) infusion (18 mg/ml solution made freshly in 0.45% saline solution and filtered). For the first 20 min, volume equivalent to 3 mg/kg zinc bis(histidinate) was infused, followed by 20 minute of 10 mg/kg and then 20 min of 30 mg/kg zinc bis(histidinate). Plasma was collected every 30 min following the start of anaesthesia. Zinc levels in plasma were analysed using inductively coupled plasma mass spectroscopy (ICP-MS).

Where [7] appears, read: listed as Zinc bis(histidinate).

T1 sequence (Q63118 24-464): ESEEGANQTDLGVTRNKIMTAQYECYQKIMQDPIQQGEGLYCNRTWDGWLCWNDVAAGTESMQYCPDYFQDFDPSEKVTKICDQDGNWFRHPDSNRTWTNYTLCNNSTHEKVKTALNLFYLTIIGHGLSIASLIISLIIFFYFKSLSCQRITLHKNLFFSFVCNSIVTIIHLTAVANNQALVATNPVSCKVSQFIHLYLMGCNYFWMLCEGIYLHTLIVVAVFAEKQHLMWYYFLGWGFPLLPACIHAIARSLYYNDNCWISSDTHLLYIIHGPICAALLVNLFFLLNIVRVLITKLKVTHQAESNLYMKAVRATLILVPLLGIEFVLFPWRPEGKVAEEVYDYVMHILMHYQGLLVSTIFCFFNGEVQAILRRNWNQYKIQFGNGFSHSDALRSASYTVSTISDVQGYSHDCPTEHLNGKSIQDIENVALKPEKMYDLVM
T1 sequence (Q9JJ74 27-148): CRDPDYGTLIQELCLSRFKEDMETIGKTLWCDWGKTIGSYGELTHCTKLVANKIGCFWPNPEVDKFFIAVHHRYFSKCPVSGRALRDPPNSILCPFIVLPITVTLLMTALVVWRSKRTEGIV

As for `NCCCC[C@H](NC(=O)[C@@H](Cc1cc(Br)c(O)c(Br)c1)NC(=O)N1CCC(N2Cc3ccccc3NC2=O)CC1)C(=O)N1CCN(c2ccncc2)CC1` [BIBN4096, olcegepant], the “Effect on zinc bis(histidinate)-induced vasodilation (area under the vasodilation curve, LDF)” value in data set [1] is on record as “reduction in vasodilation; also recorded: attenuated the effect”.

On to `N[C@@H](Cc1c[nH]cn1)C(=O)O` [L-histidine, reference compound], for which the “Cutaneous blood flow (laser Doppler flux)” value (from here on “Cutaneous blood flow”) in data set [2] was “did result in the same increase”; in data set [2] (listed as L-His), “did not cause an increase in cutaneous blood flow”.

`C[C@H](N)[C@H](O)c1cccc(O)c1` [Metaraminol]: the Systemic vascular conductance entry in data set [3] is reported as “increased systemic vascular conductance”.

In the case of `CNC([S-])=NN=C(C)C(C)=NN=C([S-])NC.[Zn+2]` [Zn(DTSM)], the “Relaxation of rat mesenteric arteries” value in data set [4] is “showed relaxation”.

In the case of `Oc1c(I)cc(Cl)c2cccnc12` [clioquinol], in data set [4], the “Relaxation of rat mesenteric arteries” value is “showed relaxation”.

Take `N[C@@H](Cc1c[nH]cn1)C(=O)O` [histidine]: in data set [4], the “Relaxation of rat mesenteric arteries” value is given as “did not provide the same relaxation; also recorded: little relaxation”.

As to `[Zn]` [zinc], the “Relaxation of rat mesenteric arteries” value in data set [4] is given as “minimal effects; also recorded: little relaxation”.

zinc bis(histidinate): in data set [4], the “Relaxation of rat mesenteric arteries” value is given as “showed relaxation; also recorded: greater relaxation”. Further, in data set [4] (listed as zinc-bis-histidinate), the “Relaxation of rat mesenteric arteries” value is “dependent on the concentration”. Further, the “Cutaneous blood flow” value in data set [2] is given as “increased cutaneous blood flow”. Also, the “Cutaneous blood flow” value in data set [2] (setting [7]) is given as “caused an increase in cutaneous blood flow”. In addition, the “Cutaneous blood flow” value in data set [2] (listed as zinc bis(histidine)) was “increased blood flow”. In addition, the Mean arterial pressure entry in data set [5] was “expected decrease in arterial pressure was not observed”. The Mean arterial pressure result in data set [5] (setting [7]) is “does not change mean arterial pressure”. In addition, in data set [6], the “Cerebral cortical microcirculatory perfusion” value is given as “rescued”, the Renal blood flow entry is listed as “dose-dependent improvement”, the “Renal cortical microcirculatory perfusion” value is given as “rescued” and the “Renal medullary microcirculatory perfusion” value was “rescued”. Further, in data set [6], the Renal oxygen delivery result was “dose-dependent improvement”, the Renal vascular resistance result is listed as “dose-dependent improvement” and the “Systemic mean arterial pressure” value is “without compromising systemic mean arterial pressure”.

zinc disulfiram: the “Relaxation of rat mesenteric arteries” value in data set [4] is given as “showed relaxation”.

As for zinc pyrithione, the “Relaxation of rat mesenteric arteries” value in data set [4] is recorded as “showed relaxation”.
